Measurements as given in PMC6704710, “Preclinical evaluation of 3D185, a novel potent inhibitor of FGFR1/2/3 and CSF-1R, in FGFR-dependent and macrophage-dominant cancer models” (Journal of Experimental & Clinical Cancer Research : CR, 2019).

Tests used:
Test in all cases: Eurofins kinase panel
Assay type in all cases: biochemical
Details in all cases: read-out: Inhibition rate (%)
cKit(V560G)(h) = target: T1, cKit(V560G)(h) (Homo sapiens, UniProt P10721, V560G)
T1 construct: purchased Eurofins (KinaseProfiler)

Wee1(h) = target: T2, Wee1(h) (Homo sapiens, UniProt P30291)
T2 construct: purchased Eurofins (KinaseProfiler)

PI3KC2γ(h) = target: T3, PI3KC2γ(h) (Homo sapiens, UniProt O75747)
T3 construct: purchased Eurofins (KinaseProfiler)
T3 sequence (O75747 1-1486): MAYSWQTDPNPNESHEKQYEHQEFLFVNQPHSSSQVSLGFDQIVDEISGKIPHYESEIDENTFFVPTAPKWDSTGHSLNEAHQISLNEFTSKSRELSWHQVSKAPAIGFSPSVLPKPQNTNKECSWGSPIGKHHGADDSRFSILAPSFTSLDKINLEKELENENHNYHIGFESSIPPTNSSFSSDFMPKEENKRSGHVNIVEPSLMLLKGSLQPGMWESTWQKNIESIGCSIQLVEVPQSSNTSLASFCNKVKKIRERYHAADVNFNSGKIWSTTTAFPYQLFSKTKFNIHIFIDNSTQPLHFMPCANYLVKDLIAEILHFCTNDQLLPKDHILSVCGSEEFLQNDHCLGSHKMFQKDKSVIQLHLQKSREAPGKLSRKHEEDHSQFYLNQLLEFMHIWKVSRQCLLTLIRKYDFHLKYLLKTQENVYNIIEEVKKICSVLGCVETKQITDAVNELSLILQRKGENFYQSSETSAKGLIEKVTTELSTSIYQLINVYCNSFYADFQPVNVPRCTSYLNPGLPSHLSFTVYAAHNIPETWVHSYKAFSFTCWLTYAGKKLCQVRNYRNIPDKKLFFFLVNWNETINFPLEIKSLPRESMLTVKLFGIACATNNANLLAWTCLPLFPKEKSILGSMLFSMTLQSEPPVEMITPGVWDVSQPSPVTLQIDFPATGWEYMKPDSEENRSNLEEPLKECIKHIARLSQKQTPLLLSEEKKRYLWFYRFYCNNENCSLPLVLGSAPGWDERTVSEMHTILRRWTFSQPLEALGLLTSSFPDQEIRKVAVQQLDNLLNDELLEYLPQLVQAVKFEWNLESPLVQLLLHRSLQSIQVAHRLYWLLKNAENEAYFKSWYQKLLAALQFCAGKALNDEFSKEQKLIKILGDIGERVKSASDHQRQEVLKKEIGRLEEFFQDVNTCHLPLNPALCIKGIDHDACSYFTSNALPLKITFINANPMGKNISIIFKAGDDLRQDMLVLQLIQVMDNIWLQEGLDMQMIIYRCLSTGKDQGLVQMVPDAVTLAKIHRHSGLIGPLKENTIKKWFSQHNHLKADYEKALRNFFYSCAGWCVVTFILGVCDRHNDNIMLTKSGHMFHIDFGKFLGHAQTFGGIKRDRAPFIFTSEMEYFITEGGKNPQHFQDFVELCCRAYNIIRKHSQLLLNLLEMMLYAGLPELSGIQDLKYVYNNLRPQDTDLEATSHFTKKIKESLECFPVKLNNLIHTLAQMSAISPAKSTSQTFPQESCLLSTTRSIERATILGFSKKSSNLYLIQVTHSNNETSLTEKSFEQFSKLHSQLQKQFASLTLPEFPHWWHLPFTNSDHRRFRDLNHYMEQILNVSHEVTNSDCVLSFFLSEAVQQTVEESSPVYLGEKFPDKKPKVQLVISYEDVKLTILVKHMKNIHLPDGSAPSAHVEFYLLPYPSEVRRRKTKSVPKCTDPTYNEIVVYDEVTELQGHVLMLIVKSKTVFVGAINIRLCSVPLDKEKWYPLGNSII

c-RAF(h) = target: T4, c-RAF(h) (Homo sapiens, UniProt P04049)
T4 construct: purchased Eurofins (KinaseProfiler)

PKCβII(h) = target: T5, PKCβII(h) (Homo sapiens, UniProt P05771)
T5 construct: purchased Eurofins (KinaseProfiler)

Fer(h) = target: T6, Fer(h) (Homo sapiens, UniProt P16591)
T6 construct: purchased Eurofins (KinaseProfiler)

CK2α1(h) = target: T7, CK2α1(h) (Homo sapiens, UniProt P68400)
T7 construct: purchased Eurofins (KinaseProfiler)

FAK(h) = target: T8, FAK(h) (Homo sapiens, UniProt Q05397)
T8 construct: purchased Eurofins (KinaseProfiler)

Hck(h) activated = target: T9, Hck(h) activated (Homo sapiens, UniProt P08631)
T9 construct: purchased Eurofins (KinaseProfiler)

SLK(h) = target: T10, SLK(h) (Homo sapiens, UniProt Q9H2G2)
T10 construct: purchased Eurofins (KinaseProfiler)

SIK(h) = target: T11, SIK(h) (Homo sapiens, UniProt P57059)
T11 construct: purchased Eurofins (KinaseProfiler)

Wee1B(h) = target: T12, Wee1B(h) (Homo sapiens, UniProt P0C1S8)
T12 construct: purchased Eurofins (KinaseProfiler)
T12 sequence (P0C1S8 whole entry): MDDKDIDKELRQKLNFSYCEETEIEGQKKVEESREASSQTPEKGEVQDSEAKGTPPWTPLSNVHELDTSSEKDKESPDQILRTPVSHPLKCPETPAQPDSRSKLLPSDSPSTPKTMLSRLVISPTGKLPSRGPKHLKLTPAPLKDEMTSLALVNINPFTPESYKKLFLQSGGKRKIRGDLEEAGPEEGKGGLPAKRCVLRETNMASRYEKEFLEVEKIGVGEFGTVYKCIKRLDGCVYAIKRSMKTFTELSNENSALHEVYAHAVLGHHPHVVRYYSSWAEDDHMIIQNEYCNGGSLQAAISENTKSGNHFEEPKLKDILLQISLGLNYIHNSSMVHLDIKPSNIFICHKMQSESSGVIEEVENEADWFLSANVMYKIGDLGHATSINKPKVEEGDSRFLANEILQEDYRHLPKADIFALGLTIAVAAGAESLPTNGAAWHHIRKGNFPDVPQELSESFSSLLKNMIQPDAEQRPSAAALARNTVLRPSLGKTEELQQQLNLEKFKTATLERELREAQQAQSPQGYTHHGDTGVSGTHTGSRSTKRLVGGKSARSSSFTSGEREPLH

T9 sequence (P08631 whole entry): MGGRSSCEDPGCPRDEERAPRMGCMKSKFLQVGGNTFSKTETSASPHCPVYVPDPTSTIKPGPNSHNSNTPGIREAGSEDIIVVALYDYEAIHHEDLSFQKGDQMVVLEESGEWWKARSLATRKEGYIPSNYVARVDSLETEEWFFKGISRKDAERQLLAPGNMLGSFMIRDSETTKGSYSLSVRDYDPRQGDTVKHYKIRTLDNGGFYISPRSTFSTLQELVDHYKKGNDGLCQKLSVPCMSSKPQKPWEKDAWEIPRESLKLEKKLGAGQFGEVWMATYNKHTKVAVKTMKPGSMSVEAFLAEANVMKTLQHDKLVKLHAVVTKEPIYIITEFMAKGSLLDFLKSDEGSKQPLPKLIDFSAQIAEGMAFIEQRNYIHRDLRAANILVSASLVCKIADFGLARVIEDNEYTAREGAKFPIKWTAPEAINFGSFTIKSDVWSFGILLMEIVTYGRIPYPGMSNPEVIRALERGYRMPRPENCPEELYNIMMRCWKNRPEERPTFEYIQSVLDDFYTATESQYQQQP
T8 sequence (Q05397 whole entry): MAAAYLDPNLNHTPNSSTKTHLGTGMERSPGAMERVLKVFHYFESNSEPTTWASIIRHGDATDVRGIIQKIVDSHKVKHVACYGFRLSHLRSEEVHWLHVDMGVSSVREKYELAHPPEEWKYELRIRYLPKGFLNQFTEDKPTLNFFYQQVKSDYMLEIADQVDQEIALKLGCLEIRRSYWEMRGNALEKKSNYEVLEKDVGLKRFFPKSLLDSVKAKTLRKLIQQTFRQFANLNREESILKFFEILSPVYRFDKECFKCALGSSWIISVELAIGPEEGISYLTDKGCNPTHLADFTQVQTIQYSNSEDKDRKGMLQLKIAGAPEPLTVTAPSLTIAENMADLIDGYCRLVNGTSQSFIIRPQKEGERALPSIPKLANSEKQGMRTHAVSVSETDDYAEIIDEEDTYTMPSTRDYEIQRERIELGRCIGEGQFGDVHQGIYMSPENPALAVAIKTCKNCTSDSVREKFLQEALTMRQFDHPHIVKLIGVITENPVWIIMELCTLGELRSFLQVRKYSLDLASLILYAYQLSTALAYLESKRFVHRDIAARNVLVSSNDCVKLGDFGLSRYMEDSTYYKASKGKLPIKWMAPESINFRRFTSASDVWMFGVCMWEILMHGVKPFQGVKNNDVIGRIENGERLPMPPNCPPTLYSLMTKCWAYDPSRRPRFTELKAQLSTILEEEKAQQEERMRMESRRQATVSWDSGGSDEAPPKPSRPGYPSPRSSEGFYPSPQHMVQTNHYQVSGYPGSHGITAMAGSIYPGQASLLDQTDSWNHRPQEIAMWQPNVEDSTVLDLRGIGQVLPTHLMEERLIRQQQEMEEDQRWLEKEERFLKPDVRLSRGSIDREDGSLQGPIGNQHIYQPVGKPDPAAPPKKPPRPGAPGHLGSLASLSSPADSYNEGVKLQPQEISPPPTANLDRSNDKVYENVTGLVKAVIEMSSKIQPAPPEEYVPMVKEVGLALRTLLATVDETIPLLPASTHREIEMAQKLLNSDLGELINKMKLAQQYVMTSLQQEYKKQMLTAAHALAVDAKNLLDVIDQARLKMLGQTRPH
T6 sequence (P16591 whole entry): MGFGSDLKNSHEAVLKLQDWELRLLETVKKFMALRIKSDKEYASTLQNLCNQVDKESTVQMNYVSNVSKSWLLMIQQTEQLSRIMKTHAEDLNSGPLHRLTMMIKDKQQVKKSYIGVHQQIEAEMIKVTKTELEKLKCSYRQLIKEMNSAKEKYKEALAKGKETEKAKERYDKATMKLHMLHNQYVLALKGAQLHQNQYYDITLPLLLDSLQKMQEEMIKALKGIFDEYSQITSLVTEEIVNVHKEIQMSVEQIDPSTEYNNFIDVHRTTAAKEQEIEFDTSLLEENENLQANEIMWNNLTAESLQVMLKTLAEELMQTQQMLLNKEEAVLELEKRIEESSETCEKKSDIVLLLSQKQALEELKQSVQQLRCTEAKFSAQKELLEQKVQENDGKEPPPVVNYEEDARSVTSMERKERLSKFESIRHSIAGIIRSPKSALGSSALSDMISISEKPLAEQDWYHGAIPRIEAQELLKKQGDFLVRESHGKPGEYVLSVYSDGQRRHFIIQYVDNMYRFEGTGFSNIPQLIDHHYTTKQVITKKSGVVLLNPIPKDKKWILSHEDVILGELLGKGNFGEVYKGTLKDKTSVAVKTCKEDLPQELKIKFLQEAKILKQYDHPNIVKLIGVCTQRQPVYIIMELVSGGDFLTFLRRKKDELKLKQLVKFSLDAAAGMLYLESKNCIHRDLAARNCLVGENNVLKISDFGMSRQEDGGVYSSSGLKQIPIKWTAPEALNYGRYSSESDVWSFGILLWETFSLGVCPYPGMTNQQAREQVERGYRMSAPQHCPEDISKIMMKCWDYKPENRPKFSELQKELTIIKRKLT
T10 sequence (Q9H2G2 whole entry): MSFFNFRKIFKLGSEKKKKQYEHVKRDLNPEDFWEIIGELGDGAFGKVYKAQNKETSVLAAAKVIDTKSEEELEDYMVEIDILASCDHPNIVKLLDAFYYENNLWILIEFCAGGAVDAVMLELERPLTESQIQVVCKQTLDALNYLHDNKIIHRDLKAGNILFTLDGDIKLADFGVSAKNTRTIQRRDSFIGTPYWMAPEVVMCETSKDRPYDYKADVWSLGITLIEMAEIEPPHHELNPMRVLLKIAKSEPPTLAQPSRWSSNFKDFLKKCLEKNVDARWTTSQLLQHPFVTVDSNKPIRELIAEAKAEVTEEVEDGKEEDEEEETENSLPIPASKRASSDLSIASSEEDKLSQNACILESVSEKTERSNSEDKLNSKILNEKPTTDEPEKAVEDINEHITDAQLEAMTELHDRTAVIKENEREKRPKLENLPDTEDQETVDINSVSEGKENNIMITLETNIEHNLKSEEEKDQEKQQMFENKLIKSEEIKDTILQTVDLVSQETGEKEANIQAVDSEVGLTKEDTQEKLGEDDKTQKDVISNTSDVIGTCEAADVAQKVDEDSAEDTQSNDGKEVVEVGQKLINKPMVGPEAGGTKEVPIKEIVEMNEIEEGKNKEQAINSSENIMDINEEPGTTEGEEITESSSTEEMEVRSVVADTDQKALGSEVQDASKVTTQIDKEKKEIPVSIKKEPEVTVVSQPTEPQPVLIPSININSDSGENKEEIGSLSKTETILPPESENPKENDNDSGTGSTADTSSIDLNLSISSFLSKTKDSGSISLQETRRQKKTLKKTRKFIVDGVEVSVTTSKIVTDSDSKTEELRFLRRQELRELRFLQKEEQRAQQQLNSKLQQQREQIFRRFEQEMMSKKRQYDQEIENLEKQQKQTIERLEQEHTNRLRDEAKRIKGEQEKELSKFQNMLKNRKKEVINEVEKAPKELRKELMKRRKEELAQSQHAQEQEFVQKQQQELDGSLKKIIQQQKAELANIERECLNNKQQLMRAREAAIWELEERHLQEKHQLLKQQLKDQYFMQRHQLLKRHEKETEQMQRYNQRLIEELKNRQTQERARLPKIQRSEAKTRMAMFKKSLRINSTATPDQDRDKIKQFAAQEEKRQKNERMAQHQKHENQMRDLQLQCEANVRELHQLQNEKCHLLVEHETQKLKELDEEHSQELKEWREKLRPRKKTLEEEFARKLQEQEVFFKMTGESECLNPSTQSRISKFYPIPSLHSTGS
T5 sequence (P05771 1-673 isoform P05771-2): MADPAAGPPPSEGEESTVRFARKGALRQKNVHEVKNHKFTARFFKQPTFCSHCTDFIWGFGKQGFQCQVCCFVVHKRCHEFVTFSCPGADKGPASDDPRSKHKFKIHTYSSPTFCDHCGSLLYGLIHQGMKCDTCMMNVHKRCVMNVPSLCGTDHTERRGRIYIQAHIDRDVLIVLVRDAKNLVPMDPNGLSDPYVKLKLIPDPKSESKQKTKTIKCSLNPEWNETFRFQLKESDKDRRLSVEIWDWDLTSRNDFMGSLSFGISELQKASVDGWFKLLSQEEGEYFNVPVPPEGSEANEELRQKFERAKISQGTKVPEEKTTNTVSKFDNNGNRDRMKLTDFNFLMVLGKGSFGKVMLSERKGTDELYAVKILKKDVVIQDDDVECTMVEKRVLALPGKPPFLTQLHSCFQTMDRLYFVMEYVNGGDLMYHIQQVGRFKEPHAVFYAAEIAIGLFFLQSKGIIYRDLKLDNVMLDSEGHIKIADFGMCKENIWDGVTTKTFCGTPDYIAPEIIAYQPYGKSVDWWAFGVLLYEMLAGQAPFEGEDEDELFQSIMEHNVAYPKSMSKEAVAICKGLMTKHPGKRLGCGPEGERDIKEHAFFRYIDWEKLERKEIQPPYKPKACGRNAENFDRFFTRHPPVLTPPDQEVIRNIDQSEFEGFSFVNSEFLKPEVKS

`COc1cc(OC)c(Cl)c(-c2ccc3c(NC(=O)c4ccc(N5CCNC(C)(C)C5)cc4)n[nH]c3n2)c1Cl` [3D185] gave an inhibition at 0.01 µM (cKit(V560G)(h); 10 nM) of 10%, an inhibition at 0.1 µM (cKit(V560G)(h); 100 nM) of 38% and an inhibition at 1 µM (cKit(V560G)(h); 1000 nM) of 71%. For the same compound, the inhibition at 0.01 µM (Wee1(h); 10 nM) was -5%, the inhibition at 0.1 µM (Wee1(h); 100 nM) was -16% and the inhibition at 1 µM (Wee1(h); 1000 nM) was 6%. The inhibition at 0.01 µM (PI3KC2γ(h); 10 nM) was -4%, the inhibition at 0.1 µM (PI3KC2γ(h); 100 nM) was -4% and the inhibition at 1 µM (PI3KC2γ(h); 1000 nM) was 1%. The inhibition at 0.01 µM (c-RAF(h); 10 nM) was 13%, the inhibition at 0.1 µM (c-RAF(h); 100 nM) was 14% and the inhibition at 1 µM (c-RAF(h); 1000 nM) was 5%. It also gave an inhibition at 0.01 µM (PKCβII(h); 10 nM) of -12%, an inhibition at 0.1 µM (PKCβII(h); 100 nM) of -1% and an inhibition at 1 µM (PKCβII(h); 1000 nM) of -8%. It also gave an inhibition at 0.01 µM (Fer(h); 10 nM) of -11%, an inhibition at 0.1 µM (Fer(h); 100 nM) of 0% and an inhibition at 1 µM (Fer(h); 1000 nM) of 42%. For the same compound, the inhibition at 0.01 µM (CK2α1(h); 10 nM) was 23%, the inhibition at 0.1 µM (CK2α1(h); 100 nM) was 21% and the inhibition at 1 µM (CK2α1(h); 1000 nM) was 10%. The inhibition at 0.01 µM (FAK(h); 10 nM) was 17%, the inhibition at 0.1 µM (FAK(h); 100 nM) was 29% and the inhibition at 1 µM (FAK(h); 1000 nM) was 58%. It also gave an inhibition at 0.01 µM (Hck(h) activated; 10 nM) of 6%, an inhibition at 0.1 µM (Hck(h) activated; 100 nM) of 44% and an inhibition at 1 µM (Hck(h) activated; 1000 nM) of 87%. It also gave an inhibition at 0.01 µM (SLK(h); 10 nM) of 10%, an inhibition at 0.1 µM (SLK(h); 100 nM) of 34% and an inhibition at 1 µM (SLK(h); 1000 nM) of 81%. It also gave an inhibition at 0.01 µM (SIK(h); 10 nM) of 4%, an inhibition at 0.1 µM (SIK(h); 100 nM) of -17% and an inhibition at 1 µM (SIK(h); 1000 nM) of -5%. For the same compound, the inhibition at 0.01 µM (Wee1B(h); 10 nM) was 9%, the inhibition at 0.1 µM (Wee1B(h); 100 nM) was -2% and the inhibition at 1 µM (Wee1B(h); 1000 nM) was 9%.
